Laboratory results taken from patent US20090004683A1, “Indicator Agent for Noninflammatory Stress Response and Use Thereof” (priority 2004, published 2009).

Tests used:
Assay type in all cases: in vivo, mouse
ACTH = experiment: Blood ACTH after IL-18 administration; details: C57B/6 mice, 1.5 μg IL-18 intravenously; FIG. 13A
Description: (§1) 1.5 μg of IL-18 prepared by genetic recombination technology was intravenously injected to C57B/6 mice, and thereafter ACTH, FSH and LH levels in blood were examined. […] FIGS. 13B and 13C show FSH and LH levels in plasma collected from mice 1 hour after IL-18 administration. It was shown that the concentrations of FSH and LH in plasma rose with the administration of IL-18.

FSH = experiment: Plasma FSH after IL-18 administration; details: C57B/6 mice, 1.5 μg IL-18 intravenously, 1 hour after administration; FIG. 13B
Description: as §1

LH = experiment: Plasma LH after IL-18 administration; details: C57B/6 mice, 1.5 μg IL-18 intravenously, 1 hour after administration; FIG. 13C
Description: as §1

IL-18: IL-18 prepared by genetic recombination technology
rose: blood ACTH concentration (ACTH) | concentration of FSH in plasma (FSH) | concentration of LH in plasma (LH)
